For one assay, the system named is Acinetobacter baumannii. Nature of the assay: microbe, parasite or virus in culture. Particulars: ATCC 19606, 18 h, ASSAY_TEST Inhibition of Bacterial Growth, detection method Absorption (OD600), MEDIA CAMHB, plate type 384well, NBS, CORNING #3640.
Assay [1] concerns Pseudomonas aeruginosa. Nature of the assay: microbe, parasite or virus in culture. Particulars: ATCC 27853, 18 h, ASSAY_TEST Inhibition of Bacterial Growth, detection method Absorption (OD600), MEDIA CAMHB, plate type 384well, NBS, CORNING #3640.
Description: Antibacterial activity against Pseudomonas aeruginosa ATCC 27853 (CO-ADD:GN_042); MIC in CAMBH media using NBS plates, by OD(600)
The subject of assay [2] is Pseudomonas aeruginosa. Nature of the assay: Antibacterial activity against Pseudomonas aeruginosa PAO397 [PAO1 d(mexAB-oprM) d(mexCD-oprJ) d(mexEF-oprN) d(mexJKL) d(mexXY) d(opmH)] (CO-ADD:GN_211); MIC in CAMBH media using NBS plates, by OD(600). Conditions: ASSAY_TEST Inhibition of Bacterial Growth, detection method Absorption (OD600), MEDIA CAMHB, plate type 384well, CORNING #3640, time 18 hr. Type of assay: functional.

The next assay relates to Staphylococcus aureus. Nature of the assay: microbe, parasite or virus in culture. Conditions: ATCC 43300, 18 h, ASSAY_TEST Inhibition of Bacterial Growth, detection method Absorption (OD600), MEDIA CAMHB, plate type 384well, NBS, CORNING #3640.
In a further assay the test system is Candida albicans. Nature of the assay: microbe, parasite or virus in culture. Conditions: ATCC 90028, ASSAY_TEST Inhibition of Fungal Growth, detection method Absorption (OD530), plate type 384well, NBS, CORNING #3640.
A further assay concerns Klebsiella pneumoniae. Nature of the assay: microbe, parasite or virus in culture. Conditions: ATCC 700603, 18 h, ASSAY_TEST Inhibition of Bacterial Growth, detection method Absorption (OD600), MEDIA CAMHB, plate type 384well, NBS, CORNING #3640.
The next assay has as its system HEK293. Nature of the assay: cells. In kind it is functional, Homo sapiens, ATCC CRL1573. Particulars: Homo sapiens, ATCC CRL1573, HEK293; ASSAY_TEST Inhibition of Cell Viability; detection method Resazurin; Fluorescence (ex560/em590); MEDIA DMEM with 10% FBS; plate type 384well; TC; CORNING #3712; time 18 hr; read-out: CC50. (Alamar Blue is a resazurin reagent that responds to reducing activity.)

Another assay relates to Escherichia coli. Nature of the assay: microbe, parasite or virus in culture. Particulars: ATCC 25922, 18 h, ASSAY_TEST Inhibition of Bacterial Growth, detection method Absorption (OD600), MEDIA CAMHB, plate type 384well, NBS, CORNING #3640.

≈ marks a conversion by molar mass, not a printed value.

Description for Acinetobacter baumannii: Antibacterial activity against Acinetobacter baumannii ATCC 19606 (CO-ADD:GN_034); MIC in CAMBH media using NBS plates, by OD600
Description for Candida albicans: Antifungal activity against Candida albicans ATCC 90028 (CO-ADD:FG_001); MIC in YNB media using NBS plates, by OD630
Description for Cryptococcus neoformans: Antifungal activity against Cryptococcus neoformans H99 ATCC 208821 (CO-ADD:FG_002); MIC in YNB media using NBS plates, by Resazurin OD(600-570)
Description for Escherichia coli: Antibacterial activity against Escherichia coli ATCC 25922 (CO-ADD:GN_001); MIC in CAMBH media using NBS plates, by OD(600)
Description for Klebsiella pneumoniae: Antibacterial activity against Klebsiella pneumoniae MDR ATCC 70063 (CO-ADD:GN_003); MIC in CAMBH media using NBS plates, by OD(600)
Description for Staphylococcus aureus: Antibacterial activity against Staphylococcus aureus MRSA ATCC 43300 (CO-ADD:GP_020); MIC in CAMBH media, using NBS plates, by OD(600)

The term CC50 denotes the concentration at which the toxic effect on the cells reaches its halfway point. As to `CCOc1ccc(C(=O)NCCc2ccccc2)cc1`, the MIC against Acinetobacter baumannii, with Pseudomonas aeruginosa [1], with Pseudomonas aeruginosa [2], in the assay on Staphylococcus aureus, against Candida albicans and against Klebsiella pneumoniae was greater than 20 µM in each case. In addition, the MIC against Escherichia coli and in the assay with Cryptococcus neoformans was greater than 20 µM each time. Also, the CC50 with HEK293 was greater than 20 µM.

For `Nc1nc2c(ncn2COC(CO)CO)c(=O)[nH]1` [GANCICLOVIR], the MIC with Acinetobacter baumannii, against Pseudomonas aeruginosa [1], with Pseudomonas aeruginosa [2], against Staphylococcus aureus, with Candida albicans and with Klebsiella pneumoniae was greater than 20 µM in each case. Besides, the MIC in the assay on Escherichia coli and in the assay on Cryptococcus neoformans was greater than 20 µM in each case. Further, in the assay with HEK293, the CC50 is greater than 20 µM.

`COc1cc(NS(=O)(=O)c2ccc(C)cc2)c2ncccc2c1`: the MIC in the assay on Acinetobacter baumannii, against Pseudomonas aeruginosa [1], against Pseudomonas aeruginosa [2], against Staphylococcus aureus, with Candida albicans and in the assay with Klebsiella pneumoniae was greater than 20 µM each time. Moreover, the MIC against Escherichia coli and in the assay on Cryptococcus neoformans was greater than 20 µM throughout. Also, the CC50 in the assay on HEK293 is 5.41 µM.

Take `O=C(NO)C1(CS(=O)(=O)c2ccc(Oc3ccc(Cl)cc3)cc2)CCOCC1` [CTS-1027]: the MIC is greater than 20 µM against Acinetobacter baumannii; greater than 20 µM in the assay with Pseudomonas aeruginosa [1]; 20 µM (≈ 8.52 µg/mL) against Pseudomonas aeruginosa [2]; greater than 20 µM in the assay with Staphylococcus aureus; greater than 20 µM with Candida albicans; greater than 20 µM in the assay with Klebsiella pneumoniae. The MIC against Escherichia coli and in the assay with Cryptococcus neoformans was greater than 20 µM throughout. In the assay with HEK293, the CC50 is greater than 20 µM.

Turning to `C[C@@H](c1nc(-c2ccc(C#N)cc2)cs1)[C@](O)(Cn1cncn1)c1ccc(F)cc1F` [RAVUCONAZOLE], the MIC is greater than 20 µM in the assay on Acinetobacter baumannii; greater than 20 µM with Pseudomonas aeruginosa [1]; greater than 20 µM with Pseudomonas aeruginosa [2]; greater than 20 µM in the assay with Staphylococcus aureus; no more than 0.156 µM in the assay with Candida albicans; greater than 20 µM with Klebsiella pneumoniae. Further, the MIC is greater than 20 µM in the assay with Escherichia coli and 0.312 µM (≈ 0.137 µg/mL) against Cryptococcus neoformans. Also, the CC50 with HEK293 is greater than 20 µM.

Consider `c1cnc(NCc2ccc(CNc3ncccn3)cc2)nc1` [MSX-122], for which the MIC with Acinetobacter baumannii, with Pseudomonas aeruginosa [1], against Pseudomonas aeruginosa [2], in the assay on Staphylococcus aureus, in the assay with Candida albicans and with Klebsiella pneumoniae was greater than 20 µM throughout. Besides, the MIC in the assay on Escherichia coli and with Cryptococcus neoformans was greater than 20 µM each time. Moreover, the CC50 in the assay with HEK293 is greater than 20 µM.

As for `NC(=O)c1cnccn1` [PYRAZINAMIDE], the MIC with Acinetobacter baumannii, in the assay with Pseudomonas aeruginosa [1], in the assay with Pseudomonas aeruginosa [2], in the assay on Staphylococcus aureus, against Candida albicans and against Klebsiella pneumoniae was greater than 20 µM each time. In addition, the MIC in the assay on Escherichia coli and in the assay on Cryptococcus neoformans was greater than 20 µM each time. Further, the CC50 in the assay with HEK293 was greater than 20 µM.

Consider `O=C(Cn1cnc2ccccc2c1=O)Nc1ccccc1`, for which the MIC in the assay on Acinetobacter baumannii, against Pseudomonas aeruginosa [1], in the assay on Pseudomonas aeruginosa [2], in the assay with Staphylococcus aureus, against Candida albicans and against Klebsiella pneumoniae was greater than 20 µM each time. In addition, the MIC with Escherichia coli and in the assay on Cryptococcus neoformans was greater than 20 µM each time. Moreover, the CC50 with HEK293 is greater than 20 µM.

As to `O=c1ccc2ncc(=O)n3c2n1CC3CN1CCC(NCc2cc3c(cn2)OCCC3)CC1` (stereo not given), the MIC in the assay on Acinetobacter baumannii was 10 µM (≈ 4.49 µg/mL); in the assay on Pseudomonas aeruginosa [1], 20 µM (≈ 8.97 µg/mL); against Pseudomonas aeruginosa [2] it was no more than 0.156 µM; against Staphylococcus aureus it was 0.625 µM (≈ 0.28 µg/mL); against Candida albicans it was greater than 20 µM; against Klebsiella pneumoniae, greater than 20 µM. In addition, the results for the MIC with Escherichia coli and in the assay on Cryptococcus neoformans were 2.5 µM (≈ 1.12 µg/mL) and greater than 20 µM, respectively. For the same compound, the CC50 in the assay on HEK293 was greater than 20 µM.

Regarding `CC(Cc1ccccc1)C(=O)Nc1ccc(Cl)cc1C(=O)O` (stereo not given), the MIC against Acinetobacter baumannii, against Pseudomonas aeruginosa [1], in the assay on Pseudomonas aeruginosa [2], against Staphylococcus aureus, in the assay with Candida albicans and in the assay on Klebsiella pneumoniae was greater than 20 µM each time. For the same compound, the MIC in the assay with Escherichia coli and against Cryptococcus neoformans was greater than 20 µM throughout. The CC50 with HEK293 is greater than 20 µM.

Take `Oc1cccc(C(Nc2nccs2)c2ccc3cccnc3c2O)c1` (stereo not given): the MIC with Acinetobacter baumannii, against Pseudomonas aeruginosa [1], in the assay on Pseudomonas aeruginosa [2], in the assay on Staphylococcus aureus, against Candida albicans and with Klebsiella pneumoniae was greater than 20 µM throughout. Moreover, the MIC in the assay with Escherichia coli and in the assay with Cryptococcus neoformans was greater than 20 µM each time. Further, the CC50 in the assay with HEK293 was 6.67 µM.

In the case of `Cc1ncc([N+](=O)[O-])n1CC(C)O` (stereo not given) [SECNIDAZOLE], the MIC with Acinetobacter baumannii, against Pseudomonas aeruginosa [1], in the assay with Pseudomonas aeruginosa [2], with Staphylococcus aureus, with Candida albicans and in the assay with Klebsiella pneumoniae was greater than 20 µM throughout. For the same compound, the MIC in the assay on Escherichia coli and in the assay on Cryptococcus neoformans was greater than 20 µM throughout. Further, in the assay with HEK293, the CC50 was greater than 20 µM.

With `CCC(CC)[C@H](NC(C)=O)[C@@H]1[C@H](O)[C@@H](C(=O)O)C[C@H]1NC(=N)N`, the MIC in the assay on Acinetobacter baumannii, with Pseudomonas aeruginosa [1], in the assay with Pseudomonas aeruginosa [2], in the assay on Staphylococcus aureus, in the assay on Candida albicans and against Klebsiella pneumoniae was greater than 20 µM in each case. Besides, the MIC against Escherichia coli and with Cryptococcus neoformans was greater than 20 µM throughout. The CC50 in the assay on HEK293 is greater than 20 µM.

`Cc1ccc(N2CCC(CCOc3ccc(S(C)(=O)=O)cc3)CC2)nn1`: the MIC against Acinetobacter baumannii, against Pseudomonas aeruginosa [1], in the assay with Pseudomonas aeruginosa [2], against Staphylococcus aureus, in the assay on Candida albicans and with Klebsiella pneumoniae was greater than 20 µM each time. Further, the MIC with Escherichia coli and with Cryptococcus neoformans was greater than 20 µM in each case. Moreover, in the assay on HEK293, the CC50 was greater than 20 µM.

As to `COCCn1cnc2c(O)nc(Nc3ccccc3)nc21`, the MIC in the assay on Acinetobacter baumannii, against Pseudomonas aeruginosa [1], against Pseudomonas aeruginosa [2], in the assay on Staphylococcus aureus, against Candida albicans and in the assay with Klebsiella pneumoniae was greater than 20 µM in each case. The MIC against Escherichia coli and in the assay on Cryptococcus neoformans was greater than 20 µM each time. Further, the CC50 with HEK293 was greater than 20 µM.

`COc1ccc(OCc2ccc(COc3c(Cl)cccc3Cl)cc2)c(Cl)c1`: the MIC against Acinetobacter baumannii, with Pseudomonas aeruginosa [1], in the assay with Pseudomonas aeruginosa [2], with Staphylococcus aureus, in the assay on Candida albicans and against Klebsiella pneumoniae was greater than 20 µM throughout. The MIC in the assay on Escherichia coli and against Cryptococcus neoformans was greater than 20 µM throughout. The CC50 in the assay on HEK293 is greater than 20 µM.

For the compound `CC[C@@H](CO)NCCN[C@@H](CC)CO` [ETHAMBUTOL], the MIC against Acinetobacter baumannii, in the assay on Pseudomonas aeruginosa [1], against Pseudomonas aeruginosa [2], in the assay on Staphylococcus aureus, against Candida albicans and against Klebsiella pneumoniae was greater than 20 µM in each case. Also, the MIC against Escherichia coli and against Cryptococcus neoformans was greater than 20 µM throughout. Moreover, in the assay on HEK293, the half-maximal cytotoxic concentration (CC50) was greater than 20 µM.

As to `O=C(N[C@H](CCS)C(=O)N[C@H](Cc1ccccc1)C(=O)O)c1cc2ccccc2[nH]1`, the MIC against Acinetobacter baumannii, with Pseudomonas aeruginosa [1], in the assay with Pseudomonas aeruginosa [2], in the assay on Staphylococcus aureus, with Candida albicans and with Klebsiella pneumoniae was greater than 20 µM throughout. The MIC in the assay with Escherichia coli and against Cryptococcus neoformans was greater than 20 µM each time. For the same compound, in the assay on HEK293, the CC50 was greater than 20 µM.

With `CN1C(=O)C(c2ccccc2)C(=O)N(c2ccccc2)c2cc(C(F)(F)F)ccc21` (stereo not given), the MIC in the assay with Acinetobacter baumannii, against Pseudomonas aeruginosa [1], against Pseudomonas aeruginosa [2], in the assay with Staphylococcus aureus, with Candida albicans and in the assay on Klebsiella pneumoniae was greater than 20 µM in each case. Also, the MIC in the assay with Escherichia coli and in the assay on Cryptococcus neoformans was greater than 20 µM in each case. For the same compound, the CC50 with HEK293 is greater than 20 µM.

As to `C=C(C)[C@@H]1CC[C@]2(C(=O)O)CC[C@]3(C)[C@H](CC[C@@H]4[C@@]5(C)CC[C@H](O)C(C)(C)[C@@H]5CC[C@]43C)[C@@H]12` [BETULINIC ACID], the MIC against Acinetobacter baumannii, in the assay on Pseudomonas aeruginosa [1], in the assay on Pseudomonas aeruginosa [2], with Staphylococcus aureus, with Candida albicans and against Klebsiella pneumoniae was greater than 20 µM in each case. For the same compound, the MIC in the assay with Escherichia coli and in the assay with Cryptococcus neoformans was greater than 20 µM in each case. Besides, the CC50 with HEK293 is greater than 20 µM.

Values taken from ChEMBL document CHEMBL4513161, “CO-ADD screening of MMV (CH) - Pandemic Response Box” (2021).
